Measurements from BindingDB's records for patent US11286268 (eFFECTOR Therapeutics, Inc., 2022).

target: Eukaryotic translation initiation factor 4E (Homo sapiens, UniProt P06730); experiment: Fluorescence Polarization Assay
Description: eIF4E protein was pre-incubated with EDA-m7GDP-ATTO-550 in FPB at 2xconcentrations for 5 minutes prior to the addition of compounds. Compounds (100x) were prepared using 3-fold serial dilutions in 100% DMSO, and subsequently diluted 1:50 in FPB to produce 2x stocks. 50 ul of 2x eIF4E/EDA-m7GDP-ATTO-550 were transferred to the wells of a 96-well half-area black flat bottom polystyrene plate. 50 ul of 2x test compound were added, and binding reactions were allowed to equilibrate for 30 minutes at room temperature while protected from light. The fluorescent polarization signal was detected using a Victor 2 multi-label counter (Perkin Elmer) and the concentration necessary to achieve inhibition of eIF4E/EDA-m7GDP-ATTO-550 binding by 50% (IC50) was calculated using data from an 8-point compound dilution series.

Eukaryotic translation initiation factor 4E, sequence (P06730 whole entry): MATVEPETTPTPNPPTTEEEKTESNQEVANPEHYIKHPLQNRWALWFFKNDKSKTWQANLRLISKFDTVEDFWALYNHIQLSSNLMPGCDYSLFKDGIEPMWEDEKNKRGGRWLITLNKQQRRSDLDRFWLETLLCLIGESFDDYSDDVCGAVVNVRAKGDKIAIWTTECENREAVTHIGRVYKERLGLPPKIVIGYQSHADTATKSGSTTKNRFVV

Compound | IC50
N#Cc1ccc(OCCn2cnc3cnc(C#N)cc3c2=O)c(-c2cccc(C(=O)O)c2)c1 [US11286268, Compound 2026] | 656 nM
Cc1nc2cnc(N3CC4(C3)CN(C3(C)CC(F)(F)C3)C4)c(C#N)c2c(=O)n1CCOc1ccc(Cl)cc1-c1ccnc2c(C(=O)O)csc12 [US11286268, Compound 1435] | 26.4 nM
Cc1nc2cnc(NC3CC[N+](C)(CC(F)F)CC3)c(C#N)c2c(=O)n1CC#Cc1ccc(Cl)cc1-c1ccnc2c(C(=O)O)csc12 (stereo not drawn) [US11286268, Compound 1663] | 14.1 nM
Cc1nc2cc(C(F)(F)F)cc(C#N)c2c(=O)n1CCOc1ccc(Cl)cc1-c1cc(C(C)C)nc2c(C(=O)O)csc12 [US11286268, Compound 1902] | 84.2 nM
Cc1nc2cnc(C(=O)C3CCN(CC(F)F)CC3)c(C#N)c2c(=O)n1CCOc1ccc(Cl)cc1-c1ccnc2c(C(=O)O)csc12 [US11286268, Compound 1440] | 69 nM
Cc1nc2cnc(N3CC4(C3)CN(C3CCC3)C4)c(C#N)c2c(=O)n1CCOc1ccc(Cl)cc1-c1ccnc2c(C(=O)O)csc12 [US11286268, Compound 1437] | 37.3 nM
Cc1nc2cnc(N(C)C3CCN(CC(F)F)CC3)c(C#N)c2c(=O)n1CCOc1ccc(Cl)cc1-c1ccnc2c(C(=O)O)csc12 [US11286268, Compound 1318] | 34.4 nM

Stronger by IC50, values ahead:

IC50 | Compound
12.8 nM | Cc1nc2cnc(N3CCN(C4CC4)C(C(F)F)C3)c(C#N)c2c(=O)n1CCOc1ccc(Cl)cc1-c1ccnc2c(C(=O)O)csc12 (stereo not drawn) [US11286268, Compound 1439]
10.6 nM | Cc1nc2cnc(N(C)CC3CCN(CC(F)F)CC3)c(C#N)c2c(=O)n1CC#Cc1ccc(Cl)cc1-c1ccnc2c(C(=O)O)csc12 [US11286268, Compound 1541]
6.87 nM | CCN(c1ncc2nc(C)n(CC#Cc3ccc(Cl)cc3-c3ccnc4c(C(=O)NS(=O)(=O)CF)csc34)c(=O)c2c1C#N)C1CCN(C2COC2)CC1 [US11286268, Compound 1743]
6.59 nM | CCN(c1ncc2nc(C)n(CC#Cc3ccc(Cl)cc3-c3ccnc4c(C(=O)NS(=O)(=O)C5COC5)csc34)c(=O)c2c1C#N)C1CCN(CC(F)(F)C(F)F)CC1 [US11286268, Compound 1608]
4.88 nM | CCN(c1ncc2nc(C)n(CC#Cc3ccc(Cl)cc3-c3ccnc4c(C(=O)NS(=O)(=O)c5ccccn5)csc34)c(=O)c2c1C#N)C1CCN(CC(F)(F)C(F)F)CC1 [US11286268, Compound 1609]
2.12 nM | Cc1nc2cnc(N(C)C3CCN(CC(C)(F)F)CC3)c(C#N)c2c(=O)n1CC#Cc1ccc(Cl)cc1-c1ccnc2c(C(=O)NS(=O)(=O)C(F)(F)F)csc12 [US11286268, Compound 1603]
